Results as given in patent publication EP0982028A1, “New use of taxoid derivatives” (RHONE-POULENC RORER S.A., priority 1998, dated 2000).
≈ marks a conversion by molar mass, not a printed value. Where “and” joins values, the source holds several entries; their conditions need not be identical. Equal entries are not always repeated. Entries after “also recorded” stand apart in the source; their conditions may differ. Where two headings read alike, the source gives them in different places.

Assays:
[1] = system: P388/CPT5 cell line; conditions: P388/CPT5, acquired resistance to camptothecin, no P-glycoprotein
Method: (§5) The resistance factor was calculated by dividing the IC50 value obtained on resistant cells by the IC50 value obtained on sensitive cells.

[2] = system: colon adenocarcinoma C51; experiment: In vivo antitumor activity against colon adenocarcinoma C51; parameters: species or system BALB/c female mice; conditions: for T-C: tumor to reach 750 mg
Method: (§1) In vivo schedule of administration and antitumor efficacy studies were carried out using a preclinical standard formulation of Product of formula Ia in ethanol: polysorbate 80 (50:50, v/v). After dilution, the final concentration was 5 % ethanol, 5 % polysorbate, 90 % glucose-5 % in water.
(§2) Product of formula Ia was administered by the intravenous route (i.v.). The experiments and data analyses were done according to standard protocols.
The activity end points used to assess subcutaneously implanted solid tumors were: • tumor growth inhibition, T/C, where T and C are the median tumor weights in mg of the treated and the control groups, respectively. […] A T/C < 10 %, ++, is considered as a high antitumor activity level which justifies further development (DN-2 level).
(§3) In cases of high antitumor activity, the two following end points were also used: • tumor growth delay, T-C, where T and C are the median times in days required for the treatment group and the control group tumors to reach a predetermined size (750 to 1500 mg). • log cell kill, which is the logarithm of the total number of cells killed by treatment.
(§4) Toxicity was based on drug deaths (≥ 10 %) or a weight loss nadir > 20 %. Docetaxel was used for comparison trials when needed.
Product of formula Ia was administered i.v. on day 4, 6, 8. […] The dosage below yielded a 2.2 log cell kill.

[3] = system: advanced colon adenocarcinoma C38; experiment: In vivo antitumor activity against advanced stage colon adenocarcinoma C38; parameters: species or system B6D2F1 female mice; conditions: for T-C: tumor to reach 1000 mg
Method: as §1, §2, §3
For advanced stage tumors, regressions can be either partial (more than 50 % reduction in tumor mass) or complete. Complete regressions are included in the partial regressions.
as §4
Product of formula Ia was administered i.v. to mice bearing 200 to 400 mg of tumor. […] In comparison, docetaxel at the HNTD produced only 40 % partial regressions in the same trial.

[4] = system: P388/DOX; conditions: IC50 on resistant cells divided by IC50 on sensitive cells, 4 days of continuous exposure
Method: as §5

[5] = system: P388/TXT; conditions: IC50 resistant / IC50 sensitive cells, 4 days of continuous exposure
Method: as §5

[6] = system: P388/VCR; conditions: IC50 resistant / IC50 sensitive cells, 4 days of continuous exposure
Method: as §5

[7] = system: HL60/TAX; conditions: IC50 resistant / IC50 sensitive cells, 4 days of continuous exposure
Method: as §5

[8] = system: Calc18/TXT; conditions: IC50 resistant / IC50 sensitive cells, 4 days of continuous exposure
Method: as §5

[9] = system: KB V1; conditions: IC50 resistant / IC50 sensitive cells, 4 days of continuous exposure
Method: as §5

[10] = system: human colon adenocarcinoma CaCo-2 cell line (ATCC HTB37); experiment: In vitro growth inhibition on CaCo-2 cell line (neutral red); format: cell-based
Method: The methodology was used, i.e., 96 well plates, time of contact of the drugs (96 hours) and neutral red coloration of viable cell. Results expressed as IC50, were summarized in the next table.

[11] = 5.8 mg/kg per injection i.v., days 4,6,8
[12] = 9.3 mg/kg per injection i.v., days 4,6,8
[13] = 15.0 mg/kg per injection i.v., days 4,6,8
[14] = 24.2 mg/kg per injection i.v., days 4,6,8
[15] = 7.7 mg/kg per injection i.v., days 14,17,20
[16] = 12.4 mg/kg per injection i.v., days 14,17,20
[17] = 20.0 mg/kg per injection i.v., days 14,17,20
[18] = 32.2 mg/kg per injection i.v., days 14,17,20

Compound | Resistance factor [1] | Comments [2, 11] | T/C in % day 18 [2, 11] [%] | log cell kill total [2, 11] | T-C [2, 11] [days] | Comments [2, 12] | T/C in % day 18 [2, 12] [%] | log cell kill total [2, 12] | T-C [2, 12] [days] | Comments [2, 13] | Comments [2, 14] | Comments [3, 15] | Complete regressions [3, 15] | log cell kill total [3, 15] | T-C [3, 15] [days] | Comments [3, 16] | Complete regressions [3, 16] | Comments [3, 17] | Complete regressions [3, 17] | Comments [3, 18] | also measured
CC[C@@]1(O)C(=O)OCc2c1cc1n(c2=O)Cc2cc3ccccc3nc2-1 [camptothecin] | 286 | – | – | – | – | – | – | – | – | – | – | – | – | – | – | – | – | – | – | – | –
4α-acetoxy-2α-benzoyloxy-5β,20-epoxy-1β-hydroxy-7β,10β-dimethoxy-9-oxo-11-taxen-13α-yl (2R,3S)-3 tert-butoxycarbonylamino-2-hydroxy-3-phenylpropionate [Product of formula Ia] | 4.8 | Active | 0 | 2.2 | 21.9 | highly active; also recorded: HNTD active | 0 | 2.6 | 25.8 | Toxic | Toxic | Active | 2/5 | 2.7 | 25.0 | Highly active | the same number of complete regressions and 5/5 | HNTD highly active | 5/5 | Toxic | DD = drug death [2, 13]: 1/5; DD = drug death [2, 14]: 5/5; HNTD = highest nontoxic dose ([2]; i.v. on day 4, 6, 8, C51-bearing mice): 9.3 mg/kg/injection; TFS = tumor free survivors observed on day 139 [3, 16]: 4/5; tumor free survivors ([3]; 12.4 mg/kg/injection i.v.): 80%; TFS = tumor free survivors observed on day 139 [3, 17]: all mice being tumor free survivors and 5/5; DD = drug death [3, 18]: 1/5; HNTD = highest nontoxic dose ([3]; i.v., mice bearing 200 to 400 mg of tumor): 20 mg/kg/injection; Resistance factor [4]: 10.0; Resistance factor ([4]; listed as product of formula Ia): 10; Resistance factor [5]: 1.8; Resistance factor [6]: 1.8; Resistance factor [7]: 2.5; Resistance factor [8]: 4.3; Resistance factor [9]: 7.6
CC(=O)O[C@@]12CO[C@@H]1C[C@H](O)[C@@]1(C)C(=O)[C@H](O)C3=C(C)[C@@H](OC(=O)[C@H](O)[C@@H](NC(=O)OC(C)(C)C)c4ccccc4)C[C@@](O)([C@@H](OC(=O)c4ccccc4)[C@H]21)C3(C)C [Docetaxel] | 10.5 | Active | 4 | 0.9 | 8.9 | Active | 0 | 2.2 | 22.4 | HNTD highly active | Toxic | Inactive | 0/5 | 0.3 | 2.5 | Marginal activity | 0/5 | HNTD highly active | 0/5 | Toxic | IC50 ([10]; Homo sapiens, 96 well plates, 96 hours contact, neutral red): 0.108 ± 0.017 µg/mL (≈ 0.134 µM); IC50 on CaCo-2 cells relative to Product of formula Ia ([10]; IC50 docetaxel versus IC50 Product of formula Ia): 4.9 times; T/C in % day 18 [2, 13]: 0%; log cell kill total [2, 13]: 3.1; T-C [2, 13]: 31.1 days; bwl = body weight loss [2, 14]: 22.8%; log cell kill total [3, 16]: 0.7; T-C [3, 16]: 6.1 days; log cell kill total [3, 17]: 3.1; T-C [3, 17]: 29.1 days; bwl = body weight loss [3, 18]: 20.6%; partial regressions ([3]; at the HNTD, partial = more than 50 % reduction in tumor mass): 40%; Resistance factor [4]: 50.7; Resistance factor ([4]; listed as docetaxel): 50; Resistance factor [5]: 4.8; Resistance factor [6]: 5.8; Resistance factor [7]: 8.1; Resistance factor [8]: 23.5; Resistance factor [9]: 59.0; Resistance factor ([9]; listed as docetaxel): 59
